Reference: patent publication US5506102A (priority 1993, dated 1996)

Columns and labels:
PR-B = molecular target: T1, PR-B (Homo sapiens, UniProt P06401); assay: Direct inhibition of PR-B transcriptional activity, CV-1 cells; type: cell-based; parameters: expressed in transfected cells; host or cells: CV-1, HepG2 (PRE2 tk-LUC); HeLa, also HepG2 and CV-1 (TAT promoter); conditions: read-out: IC50 (50% maximal Inhibitory concentration), transcriptional activity of PR-B; in the presence of 10^-8 progesterone
T1 sequence (P06401 1-933): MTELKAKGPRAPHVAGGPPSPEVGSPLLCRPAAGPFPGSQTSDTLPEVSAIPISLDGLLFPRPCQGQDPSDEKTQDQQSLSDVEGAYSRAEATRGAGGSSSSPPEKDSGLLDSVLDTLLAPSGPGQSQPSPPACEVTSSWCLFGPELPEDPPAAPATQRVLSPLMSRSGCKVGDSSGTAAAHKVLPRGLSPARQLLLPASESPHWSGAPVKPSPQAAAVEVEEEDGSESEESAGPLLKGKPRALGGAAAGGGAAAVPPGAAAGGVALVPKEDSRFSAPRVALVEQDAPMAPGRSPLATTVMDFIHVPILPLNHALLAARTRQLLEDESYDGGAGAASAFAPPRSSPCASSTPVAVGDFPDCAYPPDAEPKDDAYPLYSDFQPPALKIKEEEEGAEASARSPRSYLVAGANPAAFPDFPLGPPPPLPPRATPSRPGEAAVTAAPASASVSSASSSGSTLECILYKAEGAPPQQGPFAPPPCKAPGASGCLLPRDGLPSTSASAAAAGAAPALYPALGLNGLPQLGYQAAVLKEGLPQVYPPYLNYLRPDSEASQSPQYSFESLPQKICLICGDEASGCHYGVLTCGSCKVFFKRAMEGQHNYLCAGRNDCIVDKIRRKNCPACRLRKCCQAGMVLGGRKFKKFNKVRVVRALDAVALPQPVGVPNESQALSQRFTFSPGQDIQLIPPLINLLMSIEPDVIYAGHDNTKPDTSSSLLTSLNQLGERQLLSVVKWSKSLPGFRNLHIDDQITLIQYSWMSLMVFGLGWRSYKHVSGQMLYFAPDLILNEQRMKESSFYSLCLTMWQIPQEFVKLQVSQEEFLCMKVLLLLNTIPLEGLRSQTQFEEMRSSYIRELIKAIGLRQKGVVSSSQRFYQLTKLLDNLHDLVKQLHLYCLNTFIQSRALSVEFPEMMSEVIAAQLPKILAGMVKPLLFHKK

PR = conditions: cited from earlier work
[1] = test system: PR-B (co-expressed with PR-A); assay: PR-A effect on PR-B mediated PRE2 tk-LUC transcription (co-transfection); type: cell-based, human
Method: FIGS. 4A-4B are a series of graphs showing CV-1 ([…]) or HepG2 (FIG. 4B) cells that were transiently transfected with either […] of phPR-B or phPR-A alone, or phPR-B in the presence of increasing concentrations of phPR-A, together with 5 µg/ml of the PRE2 tk-LUC reporter and 5 µg/ml of pCH110 as an internal control. HeLa cells (FIG. 4C) were transfected with either phPR-B or phPR-A together with 5 µg/ml of the pTAT2950 reporter and 5 µg/ml of pCH110 as an internal control. […] The relative luciferase activity is calculated by dividing the normalized luciferase value at a given point by that obtained in the absence of transfected receptor or ligand. The data shown represent the mean +/- average deviation from the mean of triplicate estimations;
Both reporter plasmids were digested with XhoI and HindIII restriction enzymes and a 6.7 Kb fragment from MMTV-LUC and a 0.12 Kb fragment from PRE2 tk-CAT were isolated and ligated, resulting in a plasmid called PRE2 tk-LUC.
Cells were seeded in 12-well, 96-well or 10 cm tissue culture plates. […] 20 μg of DNA/ml of transfection buffer were used in each transfection reaction. […]

[2] = test system: glucocorticoid receptor (GR); assay: GR transcriptional activity on MMTV-LUC, CV-1 cells, GR co-expressed with PR-A; type: cell-based; conditions: 1440 min
Method: Cells were seeded in 12-well, 96-well or 10 cm tissue culture plates. […] 20 μg of DNA/ml of transfection buffer were used in each transfection reaction. In this mix, the concentration of the luciferase plasmids and that of the internal control plasmid pCH110 (Pharmacia, Inc.), which contains the gene for the β-galactosidase enzyme, remained constant ([…] of each plasmid DNA), while the receptor plasmid concentration varied as indicated for each experiment. Different amounts of receptor parental plasmid, pSV2-neo (Dr. Bert O'Malley, Baylor College of Medicine, Houston, Tex.) was included to keep constant the total amount of the SV40 enhancer vectors. pGEM4 plasmid DNA (Promega Biotech, Madison, Wis.) was added to balance the total DNA concentration to 20 g/reaction. For the 96-well plate experiments, transfections were performed on a Biomek 1000 Automated Laboratory Workstation (Beckman Instruments, Fullerton, Calif.).
Cells were seeded 24 hours prior to transfection in the fiat-bottom tissue culture plates ([…]) in phenol red-free DMEM containing 10% FCS. […] Using calcium phosphate co-precipitation, DNA solution was added dropwise with vortexing into an equal volume of 2X HBS pH 6.9 (280 mM NaCl. 50 mM HEPES, 1.5 mM Na2 HPO4) and precipitates were allowed to form for 20 minutes. Cells were transfected ( […] of DNA mix/well) for 6 hours and then washed with phosphate-bufferedsaline (PBS) to remove the precipitate. Cells were incubated for an additional 24 hours in phenol red-free medium containing 10% charcoal-treated FCS, with or without hormones as indicated in the text. Cell extracts were prepared as described by Berger et al., Supra, and assayed for luciferase and β-galactosidase activities. All determinations were performed in triplicates in at least two independent experiments, and were normalized for transfection efficiency by using β-galactosidase as an internal control.

Compound	IC50 (PR-B) [nM]	effect on PR DNA binding (PR)	PR-A effect on PR-B activity on PRE2 tk-LUC ([1]; CV-1, 10^-7 M progesterone, FIG. 4A)	PR-A effect on PR-B transcriptional activity on PRE2 tk-LUC ([1]; HepG2, 10^-7 M progesterone, FIG. 4B)	reduction in GR activity ([2]; GR and PR-A, 10^-9 M progesterone, 5×10^-8 M dexamethasone, FIG. 6, 0.001 µM) [%]	GR activity, of induced control levels ([2]; presence of progesterone and dexamethasone, PR-A co-expressed, FIG. 5A, 0.1 µM) [%]
CC#C[C@]1(O)CC[C@H]2[C@@H]3CCC4=CC(=O)CCC4=C3[C@@H](c3ccc(C(C)=O)cc3)C[C@@]21C [ZK112993]	0.6	promotes the association of PR with DNA	–	–	–	–
CC(=O)[C@H]1CC[C@H]2[C@@H]3CCC4=CC(=O)CC[C@]4(C)[C@H]3CC[C@]12C [progesterone]	–	–	repression of PR-B activity	no effect on PR-B transcriptional activity	50	2
